Assay results taken from publication PMC7496275, “Pentathiepins: A Novel Class of Glutathione Peroxidase 1 Inhibitors that Induce Oxidative Stress, Loss of Mitochondrial Membrane Potential and Apoptosis in Human Cancer Cells” (Chemmedchem, 2020).

Experiments:
bovine GPx1 = biological target: T1, bovine GPx1 (Bos taurus, UniProt P00435); assay: Jump-dilution experiments for reversibility of GPx1 inhibition; assay type: biochemical; conditions: 30 min pre-incubation at 23 °C, 100-fold jump-dilution
T1 construct: 180 μL of a bovine erythrocyte GPx1 solution (0.125 U/mL); purchased Sigma Aldrich (Taufkirchen, Germany); host or cells: bovine erythrocytes
T1 sequence (P00435 1-205): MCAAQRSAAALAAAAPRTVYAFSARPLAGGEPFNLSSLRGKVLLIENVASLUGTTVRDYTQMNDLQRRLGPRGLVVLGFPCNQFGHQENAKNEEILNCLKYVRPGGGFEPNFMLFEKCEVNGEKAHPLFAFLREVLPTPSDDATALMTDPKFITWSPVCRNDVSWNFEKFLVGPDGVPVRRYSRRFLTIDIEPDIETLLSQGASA
Description: No difference in the inhibitory activity of 4 after jump‐dilution (Figure 4B left, a) was observed compared to expected inhibition at 0.25 μM (Figure 4B left, 0.25 μM), evidence that GPx1 inhibition is reversible. […] This is consistent with findings that MSA can act as an irreversible inhibitor of GPx1.11 In further jump‐dilution experiments, we pre‐incubated both inhibitors with the assay concentrations of either GSH and TBHP (a, d) or GSH only (b, e), with (a–c) and without (d–f) GPx1 for 30 min.
The jump‐dilution experiments were carried out in a 96‐well plates at room temperature. To each well was added 75 μL of a 20 IU mL^−1 GPx stock‐solution followed by the addition of 3 μL of a 2.5 mM solution of 4 in DMF and 30 μL of a 2.5 mM solution of GSH in buffer or 30 μL of a 2.5 mM solution of GSH in buffer and 30 μL of a 5 mM solution of TBHP in water and 300 μL buffer. The plates were shaken for 30 min in the dark, then each well was diluted 100 fold into a second plate prepared for the GPx‐assay. The enzyme activity was immediately measured as described above.

human GPx = assay: GPx activity assay with human cancer cell lysates (SISO); assay type: biochemical; conditions: inhibitor at its IC50 for bovine GPx, 0.5 mM GSH
Description: To investigate whether the pentathiepins have an inhibitory effect on human GPx, cell lysates of the human cervix cancer cell line SISO, which expresses high levels of GPx1 (see below), were incubated with either 4 or MSA in concentrations of the IC50 value for the inhibitory effect on bovine GPx1.
To measure the inhibition of human GPx activity, the enzyme assay was adapted to use human cancer cell lysates in place of the bovine enzyme. A quantity of 100 μg cellular protein (determined according to the Bradford method) per well was used. Due to the large consumption of cell lysates, just the inhibitory effect on GPx at one concentration of pentathiepin was determined in primary screening. The concentration of GSH was raised to a concentration of 0.5 mM to increase the velocity of the reaction, all other conditions were unchanged. The rates of NADPH oxidation were normalized to the solvent control. […] We used 100 μg protein of lysates and added GSH up to final concentrations between 0.375–3 mM. The rates of the GPx activity were calculated by nonlinear regression and the fitted with the GraphPad Prism 6.0 software: “Enzyme kinetics – Substrate vs. Velocity (Michaelis‐Menten)”.

Gumbus cells [1] = assay: MTT cell viability assay; assay type: cell-based, human; conditions: 48 h
Description: (§1) We determined IC50 values for the viability reduction in a low micro molar range (Figure 6B).
(§2) MTT cell viability assay: For the detection of the inhibition of the viability of cells by the pentathiepins, the MTT‐viability assay was used.37 Briefly, 10 000 and 20 000 cells for the suspension cell lines HL‐60 and Gumbus, respectively, were seeded out in 50 μL medium per well and immediately exposed to the compounds. For the adherent cell lines SISO and HAP‐1, 3000 and 5000 cells, respectively, were seeded out in 96‐well plates and allowed to attach for 24 h. Cells were exposed to nine serial dilutions of compound, added to the medium from 1000‐fold concentrated stock solution in DMF. For the controls, cells were exposed to 0.1 % DMF alone. After 48 h incubation, 20 μL of the MTT stock solution (2.5 mg/mL in PBS) were added to each well to give a final concentration of 1.0 mM. The formazan crystals that formed after 4 h at 37 °C were dissolved by sonification after adding 100 μL of 0.04 M HCl in isopropanol for the suspension cell lines, or with 50 μL DMSO after aspiration of the medium for the adherent cell lines. Optical density was measured with a SpectraMax Plus 383 microtiter plate read at λ=570 nm (Molecular Devices, USA). Data of related absorption to control cells were imported into GraphPad Prism 6.0 software and IC50 values were generated by determining the inflection point of the sigmoidal log concentration‐viability inhibition curves.

HAP-1 cells = assay: MTT cell viability assay; assay type: cell-based, human
Description: as §1, §2

SISO cells = assay: MTT cell viability assay; assay type: cell-based, human; conditions: 48 h
Description: as §1, §2

HL-60 cells [2] = assay: MTT cell viability assay; assay type: cell-based; conditions: Homo sapiens, 48 h, read-out: IC50 for viability reduction
Description: as §1
as §2, with “Data of related absorption to control cells were imported into GraphPad Prism 6.0 software and IC50 values were generated by determining the inflection point of the sigmoidal log concentration‐viability inhibition curves.” left out

Gumbus cells [3] = assay: Apoptosis staining with Annexin-V/PI (flow cytometry); assay type: cell-based, human
Description: (§3) To determine whether the loss in viability by 4 is caused by apoptosis, a flow cytometric analysis with Annexin‐V−FITC and PI‐stained cells was used. Early apoptotic cells undergo a translocation of phosphatidyl serine from the inner to the outer cell membrane monitored by Annexin‐V−FITC. Late apoptotic or necrotic cells also show a loss of cell membrane integrity verifiable by PI. Cells were exposed to 4 in multiple concentrations of the viability inhibition IC50 for 6 and 24 h.
(§4) Apoptosis staining with Annexin‐V/PI: For the apoptosis measurement, the translocation of phosphatidyl serine from the inner to the outer membrane by Annexin‐V and PI double staining was used.41 The protocol of the manufacturer (Miltenyi Biotec, Germany) of the “Annexin‐V‐FITC Apoptosis Detection Kit” was followed. In brief, 500,000 cells were seeded into 6‐well plates and exposed to 4 at multiple concentrations of the viability IC50 for 6 and 24 h. Afterwards, the cells were collected in reaction tubes, washed with the binding buffer belonging to the Annexin‐V‐Kit and stained with Annexin‐V‐FITC for 10 min. After repeated washing steps, the PI solution was added to the cells and followed by the flow cytometry investigation analyses at λ ex/em=488/525±50 nm for FITC and λ ex/em=488/655–730 nm for PI with a MACSQuant Analyzer 10 (Miltenyi Biotec).

HL-60 cells [4] = assay: as above; assay type: cell-based, human; conditions: multiples of viability IC50, 24 h
Description: as §3, §4

[5] = Homo sapiens, MTT, read-out: IC50 for viability reduction

For `CCOc1c2c(c3cnc4cc(C)c(C)cc4n13)SSSSS2` [Compound 4], which “reversibility of GPx1 inhibition” value (bovine GPx1) is on record?
Its value is “reversible”.

And the “inhibition of GPx activity” value (human GPx)?
Its value is “about 20%”.

And the “cell viability at highest tested concentration” value (from here on “cell viability”) (Gumbus cells [1])?
The value was “complete loss of cell viability”.

And the IC50 (Gumbus cells [1]; [5])?
The IC50 was 2.2 to 3.1 µM.

What about the “cell viability” value (HAP-1 cells; 48 h) of the same compound?
The value was “complete loss of cell viability”.

And the IC50 (HAP-1 cells; Homo sapiens, HAP1, 48 h, MTT, read-out: IC50 for viability reduction)?
Its IC50 is 2.2 to 3.1 µM.

And the “cell viability” value (SISO cells)?
The value was “complete loss of cell viability”.

And the IC50 (SISO cells; [5])?
Its IC50 is 2.2 to 3.1 µM.

What about the IC50 (HL-60 cells [2]) of the same compound?
Its IC50 is 6.9 µM.

And the apoptotic population (Gumbus cells [3]; fourfold IC50 concentration, 6 h)?
Its apoptotic population is “nearly every cell was apoptotic”.

What about the apoptotic population (Gumbus cells [3]; multiples of viability IC50, 6 h) of the same compound?
Its apoptotic population is “significant increase of an apoptotic population”.

What about the apoptotic population (HL-60 cells [4]) of the same compound?
Its apoptotic population is “significant increase of an apoptotic population”.
